Assays:
[1] = tested on: B16-F10 tumour in C57BL/6 J mice; test: Syngeneic B16-F10 model, GVAX then anti-PD-1; format: in vivo, mouse; details: N 15, in mm³ (unit assumed)
Protocol: Female C57BL/6 J mice (stock no: 000664, Jackson Laboratory) between 7–8 weeks of age weighing approximately 18–22 g were used for the study. […] One day after tumour inoculation, mice were dosed subcutaneously into the abdomen with 1.0 × 10^6 per 100 µl GM-CSF-secreting B16 (GVAX) cells that had been irradiated with 35 Gy from a ^137Cs source discharging 124 rads min^−1. GVAX treatment was repeated on day 4. […] The treatment was repeated on day 9, 12, and 15. The start of the study where tumour inoculation is conducted is designated as day 0.
Body weights were taken twice per week.

B16-F10 cells = test: Flow cytometry, surface level of other cytokine receptors (IL1R1, IL6R, GP130, IFNAR1); format: cell-based, murine
Protocol: Cells were dissociated from the wells with 0.25% trypsin (Gibco, 25200056). After rinsing with 0.5 ml PBS, each sample was stained with the LIVE/DEAD Fixable Aqua dead cell staining solution (Life Technologies, L34957) in 100 µl PBS (1:1000 dilution) for 15 min at 4 °C. After rinsing with 2 × 0.5 ml PBS, each sample was stained with the corresponding primary antibody-dye conjugates diluted in 100 µl Pharmingen stain buffer (BD Biosciences, #554657). After 1 h staining at 4 °C, the cells were rinsed with 2 × 2 ml Pharmingen stain buffer and fixed with 4.21% (w/w) formaldehyde (BD Biosciences, #554655). Cells were analyzed on LSRFortessa X-20 (BD Biosciences) with appropiate fluorescence compensation. The data were analyzed using FlowJo. Cells were gated based on FSC and SSC. Single cells were selected using FSC-A and FSC-H and viable cells were selected using LIVE/DEAD signal. Primary antibodies used were: H-2K^b/H-2D^b (FITC, Biolegend, #114606, 1:50 dilution), HLA-A,B,C (FITC, Biolegend, #311404, 1:100 dilution), mouse IFNGR1 (PE, Invitrogen, #12-1191-82, 1:50 dilution), human IFNGR1 (PE, Miltenyi, #130-125-851, 1:50 dilution), mouse IL1R1 (APC, Biolegend, #113509, 1:20 dilution), mouse IL6R (APC, Biolegend, #115812, 1:20 dilution), mouse IFNAR1 (APC, Biolegend, #127314, 1:20 dilution), and mouse GP130 (PE, Biolegend, #149404, 1:100 dilution).

MCF7 cells [2] = test: Growth inhibition, CellTiter-Fluor (live-cell protease activity); format: cell-based, human; parameters: scale not given here; details: 10 ng ml-1 each, 6-day
Protocol: Parental and CRISPR-edited tumour cells were seeded in a cell density of 1800 (DU145), 2000 (PC-3), or 10,000 (MCF7) per well in 96-well CellCarrier plate (PelkinElmer, #6005550) filled with 50 µl culture media + 10% FBS. After 20–24 h incubation, the cells were treated with 10 ng ml^−1 of recombinant human IFNγ (R&D Systems, 285-IF-100), 10 ng ml^−1 of recombinant human TNFα (R&D Systems, 210-TA-020/CF) or a combination of both, by adding an equal volume of the complete culture media containing the cytokines. After incubating for 6 days without media change, the CellTiter-Glo 2.0 (Promega, G9243) or CellTiter-Fluor (Promega, G6082) assay were performed according to manufacturer’ instructions. The luminescence or fluorescence (Ex: 380–400 nm, Em: 505 nm) were detected by Inifinte M1000 PRO (Tecan). For CellTiter-Fluor, triplicate wells without cells were included to determine background fluorescence and the signal average was used for background substraction.

PC-3 cells = test: Lumit immunoassay, phospho-Tyr701-STAT1; format: cell-based, human; details: PC-3, PTPN2 or STUB1 loss, 30 min
Protocol: (§1) Parental and CRISPR-edited tumour cells were seeded in a cell density of 12,500 (DU145), 15,000 (PC-3), or 30,000 (MCF7) per well in 384-well plate (Greiner Bio-One, #781080) filled with 25 µl culture media + 10% FBS. After 20–24 h incubation, the cells were treated with recombinant human IFNγ (R&D Systems, #285-IF-100) by adding an equal volume of the complete culture media containing the cytokine. After 30 min of stimulation, the culture media were removed by gentle spin using Blue Washer (BlueCatBio). Lumit immunoassay (Promega, #W1202) was performed according to manufacturer’s instrutions. The assay buffer was supplemented with Halt protease and phosphatase inhibitor cocktail (Thermo Scientific, #78443). The cells were lyzed with 12 µl per well of lysis solution (0.02% digitonin) for 20 min. The cell lystates were probed for 90 min with 12 µl of mixture of primary antibodies, which include anti-STAT1 rabbit antibody (Cell Signaling Technology, #14994), anti-pSTAT1 (Tyr701) mouse antibody (Abcam, ab29045), Lumit anti-mouse antibody-LgBiT (Promega) and Lumit anti-rabbit antibody-SmBiT (Promega). Final concentration of each antibody is 0.15 µg ml^−1. After 2 min incubation in the presence of the Lumit detection reagent (6 µl), the luminescence signals were detected by Infinite M1000 PRO (Tecan).

DU145 cells = test: Lumit immunoassay, phospho-Tyr701-STAT1; format: cell-based, human; details: DU145, PTPN2 or STUB1 loss, 30 min
Protocol: as §1

MCF7 cells [3] = test: Lumit immunoassay, phospho-Tyr701-STAT1; format: cell-based, human; details: MCF7, PTPN2 or STUB1 loss, 30 min
Protocol: as §1

gStub1 #1 (guide GCATTGCTAAGAAGAAGCGC; chemistry not given here)
tumour volume (Fig. 6b) ([1]; day 5, Mean): 50.28
tumour volume (Fig. 6b) ([1]; day 8, Mean): 251.2
tumour volume (Fig. 6b) ([1]; day 10, Mean): 457.3
tumour volume (Fig. 6b) ([1]; day 12, Mean): 680.5
tumour volume (Fig. 6b) ([1]; day 14, Mean): 866
tumour volume (Fig. 6b) ([1]; day 16, Mean): 944.8
Surface GP130 (Fig. 2d) (B16-F10 cells; replicate 1): 1.09
Surface IFNAR1 (Fig. 2d) (B16-F10 cells; replicate 1): 0.74
Surface IL1R1 (Fig. 2d) (B16-F10 cells; replicate 1): 0.96
Surface IL6R (Fig. 2d) (B16-F10 cells; replicate 1): 0.93
Surface GP130 (Fig. 2d) (B16-F10 cells; replicate 2): 1.26
Surface IFNAR1 (Fig. 2d) (B16-F10 cells; replicate 2): 0.87
Surface IL1R1 (Fig. 2d) (B16-F10 cells; replicate 2): 0.97
Surface IL6R (Fig. 2d) (B16-F10 cells; replicate 2): 1.17
Surface GP130 (Fig. 2d) (B16-F10 cells; replicate 3): 1.41
Surface IFNAR1 (Fig. 2d) (B16-F10 cells; replicate 3): 1.30
Surface IL1R1 (Fig. 2d) (B16-F10 cells; replicate 3): 1.05
Surface IL6R (Fig. 2d) (B16-F10 cells; replicate 3): 1.24
Surface GP130 (Fig. 2d) (B16-F10 cells; replicate 4): 1.20
Surface IFNAR1 (Fig. 2d) (B16-F10 cells; replicate 4): 1.03
Surface IL1R1 (Fig. 2d) (B16-F10 cells; replicate 4): 1.02
Surface IL6R (Fig. 2d) (B16-F10 cells; replicate 4): 1.10

IFNγ
FC in live-cell protease activity relative to parental cells (MCF7 cells [2]; MCF7 PTPN2 sgRNA, replicate 1): -0.23
FC in live-cell protease activity relative to parental cells (MCF7 cells [2]; MCF7 PTPN2 sgRNA, replicate 2): -0.32
FC in live-cell protease activity relative to parental cells (MCF7 cells [2]; MCF7 PTPN2 sgRNA, replicate 3): -0.34
FC in live-cell protease activity relative to parental cells (MCF7 cells [2]; MCF7 Parental, replicate 1): 0.0179
FC in live-cell protease activity relative to parental cells (MCF7 cells [2]; MCF7 Parental, replicate 2): 0.0179
FC in live-cell protease activity relative to parental cells (MCF7 cells [2]; MCF7 Parental, replicate 3): -0.0365
FC in live-cell protease activity relative to parental cells (MCF7 cells [2]; MCF7 STUB1 sgRNA, replicate 1): -1.31
FC in live-cell protease activity relative to parental cells (MCF7 cells [2]; MCF7 STUB1 sgRNA, replicate 2): -1.18
FC in live-cell protease activity relative to parental cells (MCF7 cells [2]; MCF7 STUB1 sgRNA, replicate 3): -1.16
FC in live-cell protease activity relative to parental cells (MCF7 cells [2]; MCF7 control sgRNA, replicate 1): -0.0449
FC in live-cell protease activity relative to parental cells (MCF7 cells [2]; MCF7 control sgRNA, replicate 2): 0.05
FC in live-cell protease activity relative to parental cells (MCF7 cells [2]; MCF7 control sgRNA, replicate 3): 0.01
Phosphorylation of Tyr701-STAT1 (PC-3 cells): increased the cells’ response to IFNγ in a dose-dependent manner
Phosphorylation of Tyr701-STAT1 (DU145 cells): increased the cells’ response to IFNγ in a dose-dependent manner
Phosphorylation of Tyr701-STAT1 (MCF7 cells [3]): increased the cells’ response to IFNγ in a dose-dependent manner

Source: paper PMC9388626, “STUB1 is an intracellular checkpoint for interferon gamma sensing” (Scientific Reports, 2022)
